Measured values: patent US20240116985A1, “STAPLED PEPTIDES AND METHODS THEREOF” (priority 2020, published 2024)
pIC50: −log10 of the molar value. In brackets after ≈: the same amount, converted by molar mass. Like-named read-outs stand apart in the source and are kept apart here.

Tests used:
[1] = molecular target: T1, beta-catenin/TCF4 engagement (Homo sapiens, UniProt P35222); test: Nano-BRET target engagement assay (B-cat-Halo & TCF4-Luc in HEK293 cells); format: cell-based; conditions: absolute IC50; read-out: NanoBRET Abs IC50
T1 construct: expressed in transfected cells; host or cells: HEK293
T1 sequence (P35222 1-781): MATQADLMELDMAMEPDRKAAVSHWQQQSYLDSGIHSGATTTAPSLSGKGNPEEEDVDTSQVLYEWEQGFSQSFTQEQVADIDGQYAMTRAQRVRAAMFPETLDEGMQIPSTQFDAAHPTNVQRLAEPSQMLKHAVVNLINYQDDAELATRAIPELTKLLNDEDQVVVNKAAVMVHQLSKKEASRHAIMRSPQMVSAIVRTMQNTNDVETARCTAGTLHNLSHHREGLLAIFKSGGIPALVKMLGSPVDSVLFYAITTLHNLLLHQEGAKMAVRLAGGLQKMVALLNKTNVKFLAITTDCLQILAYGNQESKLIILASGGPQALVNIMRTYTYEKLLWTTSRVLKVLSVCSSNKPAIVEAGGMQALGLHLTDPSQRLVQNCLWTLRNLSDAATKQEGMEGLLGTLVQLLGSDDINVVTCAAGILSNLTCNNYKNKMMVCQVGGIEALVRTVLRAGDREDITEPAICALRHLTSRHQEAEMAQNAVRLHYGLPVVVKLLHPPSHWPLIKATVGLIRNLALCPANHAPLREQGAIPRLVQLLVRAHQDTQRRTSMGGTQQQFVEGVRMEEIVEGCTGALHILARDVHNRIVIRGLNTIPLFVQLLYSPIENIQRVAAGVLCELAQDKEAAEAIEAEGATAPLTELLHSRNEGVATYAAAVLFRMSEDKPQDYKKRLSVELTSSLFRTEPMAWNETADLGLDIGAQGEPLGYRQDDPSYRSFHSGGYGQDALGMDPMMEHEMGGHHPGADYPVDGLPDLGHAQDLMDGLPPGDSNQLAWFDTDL

Solubility in PBS = format: physicochemical
How it was run: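 Read-out is the HPLC peak area of the supernatant from ultracentrifuged PBS solution, scaled against a 50 μM peptide DMSO injection; value reported as [(PBS area)/(DMSO area)]*50 uM.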

[2] = molecular target: T2, full-length beta-Catenin (Uniprot ID P35222) (Homo sapiens, UniProt P35222); test: Fluorescence polarization IC50 (beta-catenin / 5FAM-TCF4 10-53 competition); format: binding; conditions: fluorescence polarization; read-out: beta-Catenin FP IC50
T2 construct: 10 nM full-length beta-Catenin (Uniprot ID P35222)
T2 sequence (P35222 1-781): T1 sequence (P35222 1-781)

Compound | pIC50 [1] | Solubility (Solubility in PBS) [µM] | pIC50 [2] | Solubility (Solubility in PBS; Solubility (uM)) [µM]
CC(=O)N1CCC[C@]12CC=CCCCC1(CCCC=CCCCOC(=O)N3CC[C@@](C(=O)N[C@@H](Cc4ccccc4)C(=O)N[C@@H](Cc4csc5ccccc45)C(=O)N[C@@H](CO)C(N)=O)(C3)NC(=O)[C@H]([C@@H](C)O)NC(=O)[C@H](Cc3cccc4ccccc34)NC(=O)[C@H](C)NC(=O)[C@H](C)NC(=O)[C@H]([C@@H](C)O)NC(=O)[C@H](CC(=O)O)NC1=O)NC(=O)[C@H](CC(C)(C)C)NC(=O)[C@H](CC(=O)O)NC2=O (stereo partly drawn) [I-1266, Ac-PL3-Asp-Npg-B5-Asp-Thr-Ala-Ala-1NapA-Thr-PyrS2-Phe-BztA-Ser-NH2] | < 4.70 | 10 (≈ 18.9 µg/mL) | 6.12 | 
CC(=O)N1CCC[C@]12CC=CCCCC1(CCCC=CCCCOC(=O)N3CC[C@@](C(=O)N[C@@H](Cc4ccccc4)C(=O)N[C@@H](Cc4csc5ccccc45)C(=O)N[C@@H](CO)C(N)=O)(C3)NC(=O)[C@H]([C@@H](C)O)NC(=O)[C@H](Cc3ccc4ccccc4c3)NC(=O)[C@H](C)NC(=O)[C@H](C)NC(=O)[C@H]([C@@H](C)O)NC(=O)[C@H](CC(=O)O)NC1=O)NC(=O)[C@H](CC(C)(C)C)NC(=O)[C@H](CC(=O)O)NC2=O (stereo partly drawn) [I-1267, Ac-PL3-Asp-Npg-B5-Asp-Thr-Ala-Ala-2NapA-Thr-PyrS2-Phe-BztA-Ser-NH2] | 4.43 | 10 (≈ 18.9 µg/mL) | 6.74 | 
CC(=O)N1CCC[C@]12CC=CCCCC1(CCCC=CCCCOC(=O)N3CC[C@@](C(=O)N[C@@H](Cc4cccc5ccccc45)C(=O)N[C@@H](Cc4csc5ccccc45)C(=O)N[C@@H](CO)C(N)=O)(C3)NC(=O)[C@H]([C@@H](C)O)NC(=O)[C@H](Cc3ccccc3)NC(=O)[C@H](C)NC(=O)[C@H](C)NC(=O)[C@H]([C@@H](C)O)NC(=O)[C@H](CC(=O)O)NC1=O)NC(=O)[C@H](CC(C)(C)C)NC(=O)[C@H](CC(=O)O)NC2=O (stereo partly drawn) [I-1269, Ac-PL3-Asp-Npg-B5-Asp-Thr-Ala-Ala-Phe-Thr-PyrS2-1NapA-BztA-Ser-NH2] | 4.75 | 10 (≈ 18.9 µg/mL) | 6.76 | 
CC(=O)N1CCC[C@]12CC=CCCCC1(CCCC=CCCCOC(=O)N3CC[C@@](C(=O)N[C@@H](Cc4ccccc4Cl)C(=O)N[C@@H](Cc4csc5ccccc45)C(=O)N[C@H](C(N)=O)[C@@H](C)O)(C3)NC(=O)[C@H]([C@@H](C)O)NC(=O)[C@H](Cc3ccccc3)NC(=O)[C@H](C)NC(=O)[C@H](CCCCNC(C)C)NC(=O)[C@H](CC(=O)O)NC(=O)[C@H](CC(=O)O)NC1=O)NC(=O)[C@H](CC(C)(C)C)NC(=O)[C@H](CC(=O)O)NC2=O (stereo partly drawn) [I-1273, Ac-PL3-Asp-Npg-B5-Asp-Asp-iPrLys-Ala-Phe-Thr-PyrS2-2C1F-BztA-Thr-NH2] | < 4.70 |  | 8.05 | 32 (≈ 64.2 µg/mL)
CC(=O)N1CCC[C@]12CC=CCCCC1(CCCC=CCCCOC(=O)N3CC[C@@](C(=O)N[C@@H](Cc4ccccc4Cl)C(=O)N[C@@H](Cc4csc5ccccc45)C(=O)N[C@@H](CC(C)C)C(N)=O)(C3)NC(=O)[C@H]([C@@H](C)O)NC(=O)[C@H](Cc3ccccc3)NC(=O)[C@H](C)NC(=O)[C@H](CCCCNC(C)C)NC(=O)[C@H](CC(=O)O)NC(=O)[C@H](CC(=O)O)NC1=O)NC(=O)[C@H](CC(C)(C)C)NC(=O)[C@H](CC(=O)O)NC2=O (stereo partly drawn) [I-1274, Ac-PL3-Asp-Npg-B5-Asp-Asp-iPrLys-Ala-Phe-Thr-PyrS2-2C1F-BztA-Leu-NH2] | < 4.70 | 10 (≈ 20.2 µg/mL) | 7.89 | 
CC(=O)N1CCC[C@]12CC=CCCCC1(CCCC=CCCCOC(=O)N3CC[C@@](C(=O)N[C@@H](Cc4ccccc4Cl)C(=O)N[C@@H](Cc4csc5ccccc45)C(=O)N[C@@H](CCC(N)=O)C(N)=O)(C3)NC(=O)[C@H](CCCCNC(C)C)NC(=O)[C@H](Cc3ccccc3)NC(=O)[C@H](C)NC(=O)[C@H](C)NC(=O)[C@H](CC(=O)O)NC(=O)[C@H](CC(=O)O)NC1=O)NC(=O)[C@H](CC(C)(C)C)NC(=O)[C@H](CC(=O)O)NC2=O (stereo partly drawn) [I-1278, Ac-PL3-Asp-Npg-B5-Asp-Asp-Ala-Ala-Phe-iPrLys-PyrS2-2C1F-BztA-Gln-NH2] | 4.74 |  | 8.00 | 25 (≈ 50.1 µg/mL)
CC(=O)N1CCC[C@]12CC=CCCCC1(CCCC=CCCCOC(=O)N3CC[C@@](C(=O)N[C@@H](Cc4ccccc4Cl)C(=O)N[C@@H](Cc4csc5ccccc45)C(=O)N[C@H](C(N)=O)[C@@H](C)O)(C3)NC(=O)[C@H](CCCCNC(C)C)NC(=O)[C@H](Cc3ccccc3)NC(=O)[C@H](C)NC(=O)[C@H](C)NC(=O)[C@H](CC(=O)O)NC(=O)[C@H](CC(=O)O)NC1=O)NC(=O)[C@H](CC(C)(C)C)NC(=O)[C@H](CC(=O)O)NC2=O (stereo partly drawn) [I-1279, Ac-PL3-Asp-Npg-B5-Asp-Asp-Ala-Ala-Phe-iPrLys-PyrS2-2C1F-BztA-Thr-NH2] | 4.64 |  | 7.92 | 14 (≈ 27.7 µg/mL)
CC(=O)N1CCC[C@]12CC=CCCCC1(CCCC=CCCCOC(=O)N3CC[C@@](C(=O)N[C@@H](Cc4ccccc4Cl)C(=O)N[C@@H](Cc4csc5ccccc45)C(=O)N[C@@H](CC(C)C)C(N)=O)(C3)NC(=O)[C@H](CCCCNC(C)C)NC(=O)[C@H](Cc3ccccc3)NC(=O)[C@H](C)NC(=O)[C@H](C)NC(=O)[C@H](CC(=O)O)NC(=O)[C@H](CC(=O)O)NC1=O)NC(=O)[C@H](CC(C)(C)C)NC(=O)[C@H](CC(=O)O)NC2=O (stereo partly drawn) [I-1280, Ac-PL3-Asp-Npg-B5-Asp-Asp-Ala-Ala-Phe-iPrLys-PyrS2-2C1F-BztA-Leu-NH2] | 4.61 | 10 (≈ 19.9 µg/mL) | 7.66 | 
CC(=O)N1CCC[C@]12CC=CCCCC1(CCCC=CCCCOC(=O)N3CC[C@@](C(=O)N[C@@H](Cc4ccccc4Cl)C(=O)N[C@@H](Cc4csc5ccccc45)C(=O)N[C@@H](CCC(N)=O)C(N)=O)(C3)NC(=O)[C@H](CCCCNC(C)C)NC(=O)[C@H](Cc3ccccc3)NC(=O)[C@H](C)NC(=O)[C@H](C)NC(=O)[C@H](CCC(=O)O)NC(=O)[C@H](CC(=O)O)NC1=O)NC(=O)[C@H](CC(C)(C)C)NC(=O)[C@H](CC(=O)O)NC2=O (stereo partly drawn) [I-1281, Ac-PL3-Asp-Npg-B5-Asp-Glu-Ala-Ala-Phe-iPrLys-PyrS2-2C1F-BztA-Gln-NH2] | 4.65 |  | 8.00 | 14 (≈ 28.2 µg/mL)
CC(=O)N1CCC[C@]12CC=CCCCC1(CCCC=CCCCOC(=O)N3CC[C@@](C(=O)N[C@@H](Cc4ccccc4Cl)C(=O)N[C@@H](Cc4csc5ccccc45)C(=O)N[C@H](C(N)=O)[C@@H](C)O)(C3)NC(=O)[C@H](CCCCNC(C)C)NC(=O)[C@H](Cc3ccccc3)NC(=O)[C@H](C)NC(=O)[C@H](C)NC(=O)[C@H](CCC(=O)O)NC(=O)[C@H](CC(=O)O)NC1=O)NC(=O)[C@H](CC(C)(C)C)NC(=O)[C@H](CC(=O)O)NC2=O (stereo partly drawn) [I-1282, Ac-PL3-Asp-Npg-B5-Asp-Glu-Ala-Ala-Phe-iPrLys-PyrS2-2C1F-BztA-Thr-NH2] | 4.37 |  | 7.47 | 24 (≈ 47.8 µg/mL)
CC(=O)N1CCC[C@]12CC=CCCCC1(CCCC=CCCCOC(=O)N3CC[C@@](C(=O)N[C@@H](Cc4ccccc4Cl)C(=O)N[C@@H](Cc4csc5ccccc45)C(=O)N[C@@H](CC(C)C)C(N)=O)(C3)NC(=O)[C@H](CCCCNC(C)C)NC(=O)[C@H](Cc3ccccc3)NC(=O)[C@H](C)NC(=O)[C@H](C)NC(=O)[C@H](CCC(=O)O)NC(=O)[C@H](CC(=O)O)NC1=O)NC(=O)[C@H](CC(C)(C)C)NC(=O)[C@H](CC(=O)O)NC2=O (stereo partly drawn) [I-1283, Ac-PL3-Asp-Npg-B5-Asp-Glu-Ala-Ala-Phe-iPrLys-PyrS2-2C1F-BztA-Leu-NH2] | 4.41 | 10 (≈ 20 µg/mL) | 7.59 | 
CC(=O)N1CCC[C@]12CC=CCCCC1(CCCC=CCCCOC(=O)N3CC[C@@](C(=O)N[C@@H](Cc4ccsc4)C(=O)N[C@@H](Cc4csc5ccccc45)C(=O)N[C@H](CO)[C@@H](C)O)(C3)NC(=O)[C@H](Cc3ccccc3)NC(=O)[C@H](Cc3ccccc3)NC(=O)[C@H](C)NC(=O)[C@H](C)NC(=O)[C@H](CC(=O)O)NC(=O)[C@H](CC(=O)O)NC1=O)NC(=O)[C@H](CC(C)(C)C)NC(=O)[C@H](CC(=O)O)NC2=O (stereo partly drawn) [I-1303, Ac-PL3-Asp-Npg-B5-Asp-Asp-Ala-Ala-Phe-Phe-PyrS2-3Thi-BztA-Thro1] | 5.04 |  | 7.07 | 28 (≈ 53.5 µg/mL)
